Test system: C1R-A24 cells
Test: 51Cr release assay: peptide sensitization of C1R-A24 cells to lysis by anti LB33-E CTLs
Format: cell-based, human
Conditions: 51Cr labeled C1R-A24 cells incubated 30 minutes with peptide, E/T ratio 10:1, chromium release after 4 hours
Description: The lysis assay employed was a chromium release assay following Herin et al., Int. J. Cancer 39:390-396 (1987), the disclosure of which is incorporated by reference. The assay, however, is described herein. The target melanoma cells were grown in vitro. Prior to labelling, these cells were incubated for 48 hours, in the presence of 50 U/ml of IFN-γ to increase the expression of HLA Class I molecules. The cells were then resuspended at 10^7 cells/ml in DMEM, supplemented with 10 mM HEPES and 30% FCS (i.e. fetal calf serum), and incubated for 45 minutes at 37° C. with 200 μCi/ml of Na(^51Cr)O4. Labelled cells were washed three times with DMEM, supplemented with 10 mM Hepes. These were then resuspended in DMEM supplemented with 10 mM Hepes and 10% FCS, after which 100 ul aliquots containing 10^3 cells, were distributed into 96 well microplates. PBL containing samples were added in 100 ul of the same medium, and assays were carried out in duplicate. Plates were centrifuged for 4 minutes at 100 g, and incubated for four hours at 37° C. in a 5.5% CO2 atmosphere.
Plates were centrifuged again, and 100 ul aliquots of supernatant were collected and counted. Percentage of ^51Cr release was calculated as follows: [formula]
where ER is observed, experimental ^51Cr release, SR is spontaneous release measured by incubating 10^3 labeled cells in 200 ul of medium alone, and MR is maximum release, obtained by adding 100 ul 0.3% Triton X-100® to target cells.
Four sequences in this region which (i) were 9 or 10 amino acids long, (ii) had Tyr or Phe at position 2, and (iii) had one of Phe, Leu, Ile, or Trp at C-terminus were possible. This is the motif for HLA-A24 binding described by Kubo, et al, J. Immunol 152:3913 (1994); Meier, et al, Immunogenetics 40:306-308 (1994). These were synthesized, and incubated with cells of MHC class I negative B-cell lympoblastoid line C1R, which had been transfected with the HLA-A24 cDNA clone described supra. One peptide:
Comparative experiments were carried out, wherein peptides containing one additional N- or C-terminal amino acid, and where the C-terminal Leu was deleted, were used. […] Peptides used extended SEQ ID NO:5 at the N-terminues with Ala (SEQ ID NO:6), and by deleting the C-terminal Leu (SEQ ID NO:7). […] In these experiments, ^51Cr labeled C1R-A24 cells were incubated for 30 minutes in the presence of indicated peptide concentrations CTLs were added at E/T ratios of 10:1, and chromium release was measured after 4 hours.

Substance	EC50 (read-out: half maximal effect in sensitizing transfected C1R-A24 cells to lysis by anti LB33-E CTLs)	sensitization of C1R-A24 cells to lysis, compared with SEQ ID NO:5
LYVDSLFFL [SEQ ID NO. 5, Leu Tyr Val Asp Ser Leu Phe Phe Leu]	500 nM	–
SEQ ID NO:6: Peptide that extends SEQ ID NO:5 at the N-terminus with Ala (ALYVDSLFFL)	–	sensitized the cells to lysis, although to a lesser degree than SEQ ID NO:5
SEQ ID NO:7: Peptide of SEQ ID NO:5 with the C-terminal Leu deleted (LYVDSLFF)	–	much less sensitive in sensitizing the cells
SEQ ID NO:8: Peptide of SEQ ID NO:5 with Arg added to the C terminus (LYVDSLFFLR)	–	much less sensitive in sensitizing the cells

— patent US6339149B1, “Isolated nucleic acid molecules which encode tumor rejection antigens found in dage” (Ludwig Institute for Cancer Research, priority 1994, dated 2002)
